One compound from article PMC6471062, “Suppression of the Ubiquitin Pathway by Small Molecule Binding to Ubiquitin Enhances Doxorubicin Sensitivity of the Cancer Cells” (Molecules, 2019) can be followed below.

This experiment has as its system H1299 cells. The experiment can be described thus: Dox-induced K48- and K63-polyubiquitination in cells (immunofluorescence staining, Western blot). It counts as cell-based. The conditions noted are these: H1299, 5 or 10 μM CR 12 h pretreatment, then 5 μM Dox 12 h. As for the experimental part: Figure 6 CR inhibits Dox-induced ubiquitination in the cells. (a) Immunofluorescence staining of H1299 cells treated with or without 5 (+) and 10 (++) μM CR for 12 h followed by addition of Dox to a final concentration of 5 μM, with incubation for 12 h. The cells were subjected to immunofluorescence staining using the antibodies against K48 (αK48) and K63 polyubiquitins (αK63). (b) K48 or K63 polyubiquitin level in Figure 6a was quantified by fluorescence signal. At least seven random regions acquired in confocal images were sampled and normalized against DAPI intensity for quantification. (c) Immunoblots of samples in Figure 6a using the indicated antibodies. […] Statistical significance was calculated by the Student’s t-test (* p < 0.05, ** p < 0.01, *** p < 0.001).
Cells were seeded in the SPL 4 wells cell culture chamber slide 24 h before experiment. […] Subsequently, cells were incubated with primary antibody at 1/200 dilution in blocking buffer overnight and then washed with blocking buffer five times (5 min each) before incubation with fluorescence-conjugated secondary antibody at 1/200 dilution in blocking buffer for 1 h. […] Images acquired in confocal imaging were subjected to fluorescence intensity analysis using ImageJ [55]. Fluorescence signal representing a particular ubiquitin chain level was analyzed and normalized with the intensity of DAPI. […]

In the case of `Nc1c(/N=N/c2ccc(-c3ccc(/N=N/c4cc(S(=O)(=O)O)c5ccccc5c4N)cc3)cc2)cc(S(=O)(=O)O)c2ccccc12` [CR, Congo red], the “Effect on Dox-triggered K48 and K63 ubiquitination” value is “suppressed Dox-triggered ubiquitination in both K48 and K63”.
